Test results taken from patent US10689362B2, “Quinoxaline compounds as type III receptor tyrosine kinase inhibitors” (Development Center for Biotechnology, priority 2016, dated 2020).

Experiments:
[1] = tested on: MV4-11 human acute myeloid leukemia cell with FLT3-ITD mutation; assay: MV4-11 cell proliferation assay (CellTiter-96); assay type: cell-based; conditions: Cytotoxicity, MV4-11 cells, 72 hours
Protocol: (§1) Inhibition of cell growth by compounds was measured using CellTiter™-96 assay. The cytotoxicity of compounds was evaluated in CSF-1-dependent M-NFS-60 mouse myeloid leukemia cell, FLT3 signal addicted MV4-11 human acute myeloid leukemia cell with FLT3-ITD mutation, c-KIT signal addicted Kasumi-1 human acute myeloid leukemia cell with c-KIT N822K activating mutation, and THP-1 human acute monocytic leukemia cell harboring NRAS G12D mutation.
(§2) The compounds disclosed herein were tested in MV4-11 cell proliferation assay to determine their cellular potency against FLT3 kinase. MV4-11 human acute myeloid leukemia cells harbor ligand-independent FLT3-ITD activating mutation, which render its proliferation FLT3-ITD dependent. Inhibition of FLT3 kinase activity will cause reduced growth and/or cell death. […] Cells were allowed to expand until reaching saturation at which point they were subcultured or harvested for assay use.
(§3) M-NFS-60, Kasumi-1, MV4-11 and THP-1 cells were seeded into 96-well plates at 2000, 64000, 6500, and 5000 cells/well, respectively, and incubated at 37° C., 5% CO2 overnight. Then, these seeded cells were treated with increasing concentrations of the test compounds and incubated for another 72 hours. At the end of the incubation, CellTiter96® AQueous One Solution Reagent (Promega) was added and incubated for 4 hours. Cell viability was determined by measuring absorbance at 490 nm using EMax® microplate reader (Molecular Devices).

PDGFRβ kinase = PDGFRβ kinase (Homo sapiens (Human), UniProt P09619); assay: PDGFRβ kinase assay (radiometric); assay type: biochemical; conditions: bound
Protocol: (§4) Inhibition of PDGFRβ kinase activity by a test compound disclosed herein was estimated by radiometric assay. Standard assay conditions were 10 ng of recombinant PDGFRβ (SignalChem) with 2 μg of substrate Poly-(Glu 4:Tyr 1) (sigma) in the assay buffer in kinase reaction buffer (10 mM MOPS pH 7.0, 0.21 mM EDTA, 0.5% glycerol, 0.001% Brij-35, 0.01 2-mercaptoehtanol, 1 mg/ml BSA, 10 mM MgCl2, 10 mM MnCl2, 10 μM ATP, 0.1 μCi per well [^33P]-ATP), in the presence of test compound (diluted in final concentration of 4% DMSO) or DMSO control, with a final volume of 25 μl for 60 minutes at 30° C. The reaction was stopped by adding 5 μl of 3% phosphoric acid solution. Total reaction solution was then harvested onto a filter plate (UniFilter-96 GF/B, PerkinElmer), and washed 20 times for 5 min with dH2O. 30 μl of MicroScint™-20 Cocktail (PerkinElmer) was added to dried plate. The plate was sealed and counted using a TopCount scintillation detector (PerkinElmer). […] The IC50 values of quinoxaline compounds of this invention against PDGFRβ kinase were determined using the GraphPad Prism 5 software.
(§5) The IC50 values for selected quinoxaline compounds of this invention against CSF-1R, c-KIT, FLT3, and PDGFRβ are summarized in Table 3.

FLT3 kinase = FLT3 kinase (Homo sapiens (Human), UniProt P36888); assay: FLT3 kinase assay (radiometric); assay type: biochemical
Protocol: Inhibition of FLT3 kinase activity by a test compound disclosed herein was estimated by radiometric assay. Standard assay conditions were 5 ng of recombinant FLT3 (Thermo Fisher) with 2 μg of substrate Poly-(Glu 4:Tyr 1) (sigma) in the assay buffer in kinase reaction buffer (10 mM MOPS pH 7.0, 0.21 mM EDTA, 0.5% glycerol, 0.001% Brij-35, 0.01 2-mercaptoehtanol, 1 mg/ml BSA, MgCl2 10 mM, 10 μM ATP, 0.1 μCi per well [^33P]-ATP, in the presence of test compound (diluted in final concentration of 4% DMSO) or DMSO control, with a final volume of 25 μl for 60 minutes at 30° C. The reaction was stopped by adding 5 μl of 3% phosphoric acid solution. Total reaction solution was then harvested onto a filter plate (UniFilter-96 GF/B, PerkinElmer), and washed 20 times for 5 min with dH2O. 30 μl of MicroScint™-20 Cocktail (PerkinElmer) was added to dried plate. The plate was sealed and counted using a TopCount scintillation detector (PerkinElmer). […] The IC50 values of quinoxaline compounds of this invention against FLT3 kinase were determined using the GraphPad Prism 5 software.
as §5

[2] = tested on: THP-1 human acute monocytic leukemia cell harboring NRAS G12D mutation; assay: THP-1 cell proliferation assay (counter screen, CellTiter-96); assay type: cell-based; conditions: Cytotoxicity, THP-1 cells (counter screen), 72 hours
Protocol: as §1
THP-1 human acute monocytic leukemia cells harbor NRAS G12D mutation, which renders cell proliferate independently of class III RTKs signal. […] Cells were allowed to expand until reaching saturation at which point they were subcultured or harvested for assay use.
as §3

[3] = tested on: CSF-1-dependent M-NFS-60 mouse myeloid leukemia cell; assay: M-NFS-60 cell proliferation assay (CellTiter-96); assay type: cell-based; conditions: Cytotoxicity, M-NFS-60 cells, 72 hours
Protocol: as §1
The compounds disclosed herein were tested in M-NFS-60 cell proliferation assay to determine their cellular potency against CSF-1R. […] Inhibition of CSF-1R kinase activity will cause reduced growth and/or cell death. […] Cells were allowed to expand until reaching saturation at which point they were subcultured or harvested for assay use.
as §3

c-KIT kinase = c-KIT kinase (Homo sapiens (Human), UniProt P10721); assay: c-KIT kinase assay (radiometric); assay type: biochemical
Protocol: as §4, with “of c-KIT” for “of PDGFRβ”, “were 20” for “were 10”, “recombinant c-Kit” for “recombinant PDGFRβ”, “well [^33P]-ATP,” for “well [^33P]-ATP),”, “against c-KIT” for “against PDGFRβ”
as §5

CSF-1R kinase = CSF-1R kinase (Homo sapiens (Human), UniProt P07333); assay: CSF-1R kinase assay (AlphaScreen); assay type: biochemical
Protocol: Inhibition of CSF-1R kinase activity by a test compound disclosed herein was estimated by AlphaScreen (PerkinElmer). […] Reactions were incubated at 30° C. for 45 min and stopped by adding 5 μL of 50 mM EDTA. Analysis of resulting product using an AlphaScreen kit, and counted with Enspire Alpha (PerkinElmer). […] The IC50 values of quinoxaline compounds of this invention against CSF-1R kinase were determined using the GraphPad Prism 5 software.

[4] = tested on: Kasumi-1 human acute myeloid leukemia cell with c-KIT N822K activating mutation; assay: Kasumi-1 cell proliferation assay (CellTiter-96); assay type: cell-based; conditions: Cytotoxicity, Kasumi-1 cells, 72 hours
Protocol: as §1
as §2, with “Kasumi” for “MV4-11”, “c-KIT” for “FLT3”, “N822K c-KIT” for “FLT3-ITD”, “thus the cell” for “which render its”, “relied on c-KIT signal.” for “FLT3-ITD dependent.”
as §3

Chain of PDGFRβ kinase (P09619 33-1106): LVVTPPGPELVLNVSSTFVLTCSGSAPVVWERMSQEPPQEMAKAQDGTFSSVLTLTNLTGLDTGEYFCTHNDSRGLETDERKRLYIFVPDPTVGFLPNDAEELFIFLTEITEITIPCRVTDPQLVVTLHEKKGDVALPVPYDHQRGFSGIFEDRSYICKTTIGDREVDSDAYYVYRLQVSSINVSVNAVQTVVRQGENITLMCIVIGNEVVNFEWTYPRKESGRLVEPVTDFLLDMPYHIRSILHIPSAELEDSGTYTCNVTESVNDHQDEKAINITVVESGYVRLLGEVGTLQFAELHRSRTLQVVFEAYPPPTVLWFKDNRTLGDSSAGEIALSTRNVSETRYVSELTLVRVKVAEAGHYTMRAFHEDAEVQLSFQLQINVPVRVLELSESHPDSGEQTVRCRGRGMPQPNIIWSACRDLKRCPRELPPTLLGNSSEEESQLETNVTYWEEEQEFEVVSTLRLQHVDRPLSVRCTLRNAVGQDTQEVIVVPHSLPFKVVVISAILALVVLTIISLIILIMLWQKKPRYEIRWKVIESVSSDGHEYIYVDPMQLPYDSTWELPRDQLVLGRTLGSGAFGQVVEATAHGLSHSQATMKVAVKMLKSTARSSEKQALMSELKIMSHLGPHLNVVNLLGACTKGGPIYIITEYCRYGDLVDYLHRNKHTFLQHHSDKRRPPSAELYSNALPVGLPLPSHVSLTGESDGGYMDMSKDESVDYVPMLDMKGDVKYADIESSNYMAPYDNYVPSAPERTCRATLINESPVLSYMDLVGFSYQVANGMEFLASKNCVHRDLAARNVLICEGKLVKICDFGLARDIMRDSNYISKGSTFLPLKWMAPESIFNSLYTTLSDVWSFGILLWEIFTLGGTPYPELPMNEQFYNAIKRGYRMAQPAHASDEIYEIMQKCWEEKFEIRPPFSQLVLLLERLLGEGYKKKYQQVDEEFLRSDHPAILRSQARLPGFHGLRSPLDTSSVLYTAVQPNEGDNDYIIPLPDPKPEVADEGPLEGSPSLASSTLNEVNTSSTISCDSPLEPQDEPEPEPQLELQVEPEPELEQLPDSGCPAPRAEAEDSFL
Chain of CSF-1R kinase (P07333 20-972): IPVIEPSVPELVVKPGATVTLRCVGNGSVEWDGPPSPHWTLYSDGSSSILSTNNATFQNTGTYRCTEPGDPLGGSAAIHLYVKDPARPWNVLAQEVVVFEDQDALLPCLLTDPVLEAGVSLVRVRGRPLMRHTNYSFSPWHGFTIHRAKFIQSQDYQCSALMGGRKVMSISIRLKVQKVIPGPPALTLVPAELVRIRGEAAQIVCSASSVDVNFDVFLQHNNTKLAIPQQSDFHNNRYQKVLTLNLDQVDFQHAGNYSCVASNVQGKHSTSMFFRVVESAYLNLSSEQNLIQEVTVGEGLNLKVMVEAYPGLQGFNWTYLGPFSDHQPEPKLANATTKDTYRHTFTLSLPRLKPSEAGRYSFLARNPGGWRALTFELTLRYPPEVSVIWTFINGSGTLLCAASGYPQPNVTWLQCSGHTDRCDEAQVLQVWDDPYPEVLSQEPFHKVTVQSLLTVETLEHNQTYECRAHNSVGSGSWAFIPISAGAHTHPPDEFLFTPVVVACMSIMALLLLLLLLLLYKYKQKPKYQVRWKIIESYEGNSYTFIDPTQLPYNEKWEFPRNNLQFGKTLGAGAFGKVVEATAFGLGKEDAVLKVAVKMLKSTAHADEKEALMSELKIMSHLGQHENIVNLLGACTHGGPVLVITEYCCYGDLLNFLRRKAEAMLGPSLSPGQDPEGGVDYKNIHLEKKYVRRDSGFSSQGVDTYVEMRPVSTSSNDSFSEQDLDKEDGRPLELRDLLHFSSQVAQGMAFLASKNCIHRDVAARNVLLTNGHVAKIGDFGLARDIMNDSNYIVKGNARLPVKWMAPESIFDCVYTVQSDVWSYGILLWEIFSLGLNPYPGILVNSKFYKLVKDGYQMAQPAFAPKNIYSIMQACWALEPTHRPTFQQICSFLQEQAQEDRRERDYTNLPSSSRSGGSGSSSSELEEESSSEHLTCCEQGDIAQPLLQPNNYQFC
Chain of c-KIT kinase (P10721 26-976): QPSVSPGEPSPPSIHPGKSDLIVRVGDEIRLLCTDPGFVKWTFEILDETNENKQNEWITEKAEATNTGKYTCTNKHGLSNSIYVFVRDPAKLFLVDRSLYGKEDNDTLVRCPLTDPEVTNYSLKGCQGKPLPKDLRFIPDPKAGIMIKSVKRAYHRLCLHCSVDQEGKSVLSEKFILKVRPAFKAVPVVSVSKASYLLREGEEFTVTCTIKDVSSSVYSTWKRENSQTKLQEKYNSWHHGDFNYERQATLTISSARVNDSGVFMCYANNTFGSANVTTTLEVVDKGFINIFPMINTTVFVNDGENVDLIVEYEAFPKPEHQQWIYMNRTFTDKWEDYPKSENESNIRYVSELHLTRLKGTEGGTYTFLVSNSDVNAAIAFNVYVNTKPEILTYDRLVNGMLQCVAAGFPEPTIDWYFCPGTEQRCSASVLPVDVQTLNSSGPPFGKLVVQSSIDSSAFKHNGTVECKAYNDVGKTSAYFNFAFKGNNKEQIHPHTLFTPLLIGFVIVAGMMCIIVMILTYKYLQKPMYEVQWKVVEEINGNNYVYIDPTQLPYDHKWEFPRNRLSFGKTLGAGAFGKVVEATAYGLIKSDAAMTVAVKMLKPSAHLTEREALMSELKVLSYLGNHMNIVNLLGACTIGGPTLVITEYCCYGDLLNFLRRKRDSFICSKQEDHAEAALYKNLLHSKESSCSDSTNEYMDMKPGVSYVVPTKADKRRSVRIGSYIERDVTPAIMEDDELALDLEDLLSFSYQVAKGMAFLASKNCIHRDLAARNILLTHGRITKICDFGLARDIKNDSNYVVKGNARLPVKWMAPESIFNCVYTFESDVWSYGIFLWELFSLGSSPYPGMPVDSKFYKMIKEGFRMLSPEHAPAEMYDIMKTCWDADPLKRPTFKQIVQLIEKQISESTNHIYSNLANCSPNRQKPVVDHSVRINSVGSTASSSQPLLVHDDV
Chain of FLT3 kinase (P36888 27-993): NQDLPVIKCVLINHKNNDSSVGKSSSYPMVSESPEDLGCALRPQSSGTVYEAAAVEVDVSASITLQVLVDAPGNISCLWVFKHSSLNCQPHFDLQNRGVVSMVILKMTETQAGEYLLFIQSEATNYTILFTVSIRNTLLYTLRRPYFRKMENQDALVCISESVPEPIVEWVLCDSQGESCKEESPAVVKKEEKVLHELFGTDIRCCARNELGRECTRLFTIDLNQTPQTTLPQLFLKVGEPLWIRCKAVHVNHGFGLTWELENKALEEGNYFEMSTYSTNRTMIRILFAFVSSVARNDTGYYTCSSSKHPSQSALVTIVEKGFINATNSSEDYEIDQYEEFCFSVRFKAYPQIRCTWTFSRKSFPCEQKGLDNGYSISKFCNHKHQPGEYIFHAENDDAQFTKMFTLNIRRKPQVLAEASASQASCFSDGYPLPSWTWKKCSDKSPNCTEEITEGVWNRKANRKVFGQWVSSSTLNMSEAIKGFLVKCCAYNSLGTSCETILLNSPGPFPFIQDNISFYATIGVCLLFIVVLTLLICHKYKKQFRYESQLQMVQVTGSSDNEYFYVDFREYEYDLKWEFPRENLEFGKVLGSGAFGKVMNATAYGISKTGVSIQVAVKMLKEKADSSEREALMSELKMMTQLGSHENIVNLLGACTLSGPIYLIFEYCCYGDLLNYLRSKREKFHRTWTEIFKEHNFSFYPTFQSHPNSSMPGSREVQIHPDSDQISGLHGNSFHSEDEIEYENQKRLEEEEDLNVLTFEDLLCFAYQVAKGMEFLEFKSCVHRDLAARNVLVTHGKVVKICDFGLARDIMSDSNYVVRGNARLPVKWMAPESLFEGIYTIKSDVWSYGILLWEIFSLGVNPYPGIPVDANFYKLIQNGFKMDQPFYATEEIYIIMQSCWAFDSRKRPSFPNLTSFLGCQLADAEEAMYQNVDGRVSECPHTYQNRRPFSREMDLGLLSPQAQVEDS

COc1cc(Nc2ccc3ncc(N4CCOCC4)nc3c2C#N)ccc1OCc1ccncc1 [Example 46, 6-((3-methoxy-4-(pyridin-4-ylmethoxy)phenyl)amino)-3-morpholinoquinoxaline-5-carbonitrile]
IC50 [1]: 1000 to 10000 nM
IC50 (PDGFRβ kinase): > 1000 nM
IC50 (FLT3 kinase; bound): > 1000 nM
IC50 [2]: > 10000 nM
IC50 [3]: 1000 to 10000 nM
IC50 (c-KIT kinase; class symbol): 100 to 300 nM
IC50 (CSF-1R kinase; class symbol): 300 to 1000 nM
IC50 [4]: 1000 to 10000 nM

COc1ccc(CNc2ccc(Nc3ccc4ncc(N5CCOCC5)nc4c3C#N)cc2OC)cc1 [Example 39, 6-((3-methoxy-4-((4-methoxybenzyl)amino)phenyl)amino)-3-morpholinoquinoxaline-5-carbonitrile]
IC50 [1]: 1000 to 10000 nM
IC50 (PDGFRβ kinase): > 1000 nM
IC50 (FLT3 kinase; bound): > 1000 nM
IC50 [2]: > 10000 nM
IC50 [3]: > 10000 nM
IC50 (c-KIT kinase; class symbol): 100 to 300 nM
IC50 (CSF-1R kinase; bound): > 1000 nM
IC50 [4]: 300 to 1000 nM

COc1cc(Nc2ccc3ncc(N4CCOCC4)nc3c2C#N)ccc1OCc1ccco1 [Example 122, 6-((4-(furan-2-ylmethoxy)-3-methoxyphenyl)amino)-3-morpholinoquinoxaline-5-carbonitrile]
IC50 [1]: 1000 to 10000 nM
IC50 (PDGFRβ kinase): > 1000 nM
IC50 (FLT3 kinase; bound): > 1000 nM
IC50 [2]: > 10000 nM
IC50 [3]: 1000 to 10000 nM
IC50 (c-KIT kinase; class symbol): < 100 nM
IC50 (CSF-1R kinase; class symbol): 100 to 300 nM
IC50 [4]: 300 to 1000 nM

COc1ccc(COc2ccc(Nc3ccc4ncc(OC)nc4c3C#N)cc2OC)cc1 [Example 3, 3-methoxy-6-((3-methoxy-4-((4-methoxybenzyl)oxy)phenyl)amino)quinoxaline-5-carbonitrile]
IC50 (PDGFRβ kinase): > 1000 nM
IC50 (FLT3 kinase; bound): > 1000 nM
IC50 (c-KIT kinase; class symbol): 100 to 300 nM
IC50 (CSF-1R kinase; class symbol): 300 to 1000 nM

COc1cc(Nc2ccc3ncc(N4CCOCC4)nc3c2C#N)ccc1OCc1ccoc1 [Example 121, 6-((4-(furan-3-ylmethoxy)-3-methoxyphenyl)amino)-3-morpholinoquinoxaline-5-carbonitrile]
IC50 [1]: 1000 to 10000 nM
IC50 (PDGFRβ kinase): > 1000 nM
IC50 (FLT3 kinase; bound): > 1000 nM
IC50 [2]: > 10000 nM
IC50 [3]: 1000 to 10000 nM
IC50 (c-KIT kinase; class symbol): 100 to 300 nM
IC50 (CSF-1R kinase; class symbol): 100 to 300 nM
IC50 [4]: 300 to 1000 nM

COc1ccc(COc2ccc(Nc3ccc4ncc(OC(C)C)nc4c3C#N)cc2OC)cn1 [Example 119, 3-isopropoxy-6-((3-methoxy-4-((6-methoxypyridin-3-yl)methoxy)phenyl)amino)quinoxaline-5-carbonitrile]
IC50 [1]: 1000 to 10000 nM
IC50 (PDGFRβ kinase): > 1000 nM
IC50 (FLT3 kinase; class symbol): 100 to 300 nM
IC50 [2]: > 10000 nM
IC50 [3]: 1000 to 10000 nM
IC50 (c-KIT kinase; bound): > 1000 nM
IC50 (CSF-1R kinase; class symbol): 100 to 300 nM
IC50 [4]: > 10000 nM

COc1ccc(COc2ccc(Nc3ccc4ncc(OCCN(C)C)nc4c3C#N)cc2OC)cc1 [Example 13, 3-(2-(dimethylamino)ethoxy)-6-((3-methoxy-4-((4-methoxybenzyl)oxy)phenyl)amino)quinoxaline-5-carbonitrile]
IC50 [1]: 1000 to 10000 nM
IC50 (PDGFRβ kinase): > 1000 nM
IC50 (FLT3 kinase; bound): > 1000 nM
IC50 [2]: 1000 to 10000 nM
IC50 [3]: 1000 to 10000 nM
IC50 (c-KIT kinase; class symbol): 300 to 1000 nM
IC50 (CSF-1R kinase; class symbol): 100 to 300 nM
IC50 [4]: 1000 to 10000 nM

COc1ccc(COc2ccc(Nc3ccc4ncc(-n5ccnc5)nc4c3C#N)cc2OC)cn1 [Example 70, 3-(1H-imidazol-1-yl)-6-((3-methoxy-4-((6-methoxypyridin-3-yl)methoxy)phenyl)amino)quinoxaline-5-carbonitrile]
IC50 (PDGFRβ kinase): > 1000 nM
IC50 (FLT3 kinase; bound): > 1000 nM
IC50 (c-KIT kinase; bound): > 1000 nM
IC50 (CSF-1R kinase; class symbol): < 100 nM

COc1cnc2ccc(Nc3ccc(OCc4ccc(OC)c(C#N)c4)c(OC)c3)c(C#N)c2n1 [Example 140, 6-((4-((3-cyano-4-methoxybenzyl)oxy)-3-methoxyphenyl)amino)-3-methoxyquinoxaline-5-carbonitrile]
IC50 (PDGFRβ kinase): > 1000 nM
IC50 (FLT3 kinase; bound): > 1000 nM
IC50 (c-KIT kinase; bound): > 1000 nM
IC50 (CSF-1R kinase; class symbol): 100 to 300 nM

COc1cc(Nc2ccc3ncc(N4CCOCC4)nc3c2C#N)ccc1OCc1ccccn1 [Example 57, 6-((3-methoxy-4-(pyridin-2-ylmethoxy)phenyl)amino)-3-morpholinoquinoxaline-5-carbonitrile]
IC50 (PDGFRβ kinase): > 1000 nM
IC50 (FLT3 kinase; bound): > 1000 nM
IC50 (c-KIT kinase; class symbol): 300 to 1000 nM
IC50 (CSF-1R kinase; bound): > 1000 nM

COc1cc(Nc2ccc3ncc(N4CCOCC4)nc3c2C#N)ccc1OCc1cncn1C [Example 55, 6-((3-methoxy-4-((1-methyl-1H-imidazol-5-yl)methoxy)phenyl)amino)-3-morpholinoquinoxaline-5-carbonitrile]
IC50 (PDGFRβ kinase): > 1000 nM
IC50 (FLT3 kinase; bound): > 1000 nM
IC50 (c-KIT kinase; class symbol): 300 to 1000 nM
IC50 (CSF-1R kinase; bound): > 1000 nM

COc1cc(Nc2ccc3ncc(N4CCOCC4)nc3c2C#N)ccc1OCc1ccc(C)[n+]([O-])c1 [Example 146, 6-((3-methoxy-4-((6-methyl-1-(λ^1-oxidaneyl)-1λ^4-pyridin-3-yl)methoxy)phenyl)amino)-3-morpholinoquinoxaline-5-carbonitrile]
IC50 [1]: 1000 to 10000 nM
IC50 (FLT3 kinase; class symbol): 100 to 300 nM
IC50 [2]: > 10000 nM
IC50 [3]: 1000 to 10000 nM
IC50 (c-KIT kinase; class symbol): 100 to 300 nM
IC50 [4]: 1000 to 10000 nM
